pEC50, pIC50: −log10 of the molar value. The source made the active and inactive calls. No cut-off for these calls is given here.
Assays:
[1] = Cytotoxicity against human A549-ACE2 cells infected with SARS-CoV-2 USA-WA1/2020 assessed as reduction in cell viability at 25 uM measured for 3 days by WST-1 assay relative to control; type: toxicity, cell-based; details: a549-ace2, 72 h, time 3 day
[2] = Inhibition of mouse recombinant alpha-glucosidase using 4-methylumbelliferyl-[…]-D-glucopyranoside as substrate preincubated for 60 mins followed by substrate addition and measured after 30 mins by fluorescence based analysis
[3] = Inhibition of C-terminal his6-tagged full length recombinant mouse Endoplasmic reticulum alpha-glucosidase 1 (59 to 834 residues) expressed in FreeStyle 293-F cells using trisaccharide as substrate preincubated for 60 mins followed by substrate addition and measured for 90 mins by Amplex Red assay
SARS-CoV-2 [4] = assay: Antiviral activity against SARS-CoV-2 USA-WA1/2020 infected in human A549-ACE2 cells assessed as reduction in viral burden measured upto 4 days by viral plaque assay; type: functional, organism-based; details: Severe acute respiratory syndrome coronavirus 2, USA-WA1/2020, A549-ACE2, 96 h
[5] = Cytotoxicity against human A549-ACE2 cells infected with SARS-CoV-2 USA-WA1/2020 assessed as reduction in cell viability measured for 3 days by WST-1 assay; type: toxicity, cell-based; details: a549-ace2, 72 h, time 3 day
SARS-CoV-2 [6] = assay: Antiviral activity against SARS-CoV-2 USA-WA1/2020 infected in human A549-ACE2 cells assessed as maximum reduction in viral burden up to 100 uM measured upto 4 days by viral plaque assay; type: functional; details: Severe acute respiratory syndrome coronavirus 2, time <= 4.0 day

SMILES | Activity [1] [%] | pIC50 [2] | pIC50 [3] | pEC50 (SARS-CoV-2 [4]) | CC50 [5] [nM] | Activity (SARS-CoV-2 [6])
Cc1cc(-c2ccco2)ccc1NCc1ccc(CN2C[C@H](O)[C@@H](O)[C@H](O)[C@H]2CO)cc1 | 82.6 | 6.50 | > 9.00 | < 4.60 | 29500 | 
OC[C@@H]1[C@@H](O)[C@H](O)[C@@H](O)CN1CCCCCCNc1cc(-c2cccnn2)cc(C2CC2)c1 | 100 | 7.92 | 6.99 | 5.10 | > 100000 | 
Cc1nc(-c2ccc(NCCCCCCN3C[C@H](O)[C@@H](O)[C@H](O)[C@H]3CO)c([N+](=O)[O-])c2)no1 | 100 | 8.52 | 7.00 | 6.36 | > 100000 | 
N#Cc1cc(NCc2cccc(CN3C[C@H](O)[C@@H](O)[C@H](O)[C@H]3CO)c2)cc(C2=COCCO2)c1 | 100 | 5.57 | 8.52 |  | > 100000 | 
O=[N+]([O-])c1cc(NCCCCCCN2C[C@H](O)[C@@H](O)[C@H](O)[C@H]2CO)cc(-c2ccncc2)c1 | 87.2 | > 9.00 | 9.00 |  | 54200 | 
O=[N+]([O-])c1cc(-n2nccn2)ccc1NCCCCCCN[C@H]1C[C@](O)(CO)[C@@H](O)[C@H](O)[C@H]1O |  | > 9.00 | 7.33 |  |  | 
Cc1nc2cc(-c3ncccn3)ccc2n1CCCCCCN1C[C@H](O)[C@@H](O)[C@H](O)[C@H]1CO | 80.8 | 6.71 | 7.11 | 4.91 | > 100000 | 
[N-]=[N+]=Nc1ccc(NCCCCCCN2C[C@H](O)[C@@H](O)[C@H](O)[C@H]2CO)c([N+](=O)[O-])c1 | 100 | 8.00 | 6.81 | 6.24 | > 100000 | 
OC[C@@H]1[C@@H](O)[C@H](O)[C@@H](O)CN1CCc1ccc(CCNc2cc(O)cc(-c3ncon3)c2)cc1 | 83.8 | 6.53 | 6.00 |  | > 100000 | 
OC[C@@H]1[C@@H](O)[C@H](O)[C@@H](O)CN1CCc1ccc(CCNc2cc(O)cc(-c3cccnn3)c2)cc1 | 93.5 | > 9.00 | 6.68 |  | > 100000 | 
CS(=O)(=O)c1cc(NCc2ccc(CN3C[C@H](O)[C@@H](O)[C@H](O)[C@H]3CO)cc2)cc(-c2cccnn2)c1 | 99.2 | 6.94 | 7.68 |  | > 100000 | 
C[C@@H]1CN(c2ccc(NCc3ccc(CN4C[C@H](O)[C@@H](O)[C@H](O)[C@H]4CO)cc3)c([N+](=O)[O-])c2)C[C@H](C)O1 | 51.5 | 8.40 | 9.00 |  |  | inactive
CS(=O)(=O)c1cc(NCc2cccc(CN3C[C@H](O)[C@@H](O)[C@H](O)[C@H]3CO)c2)cc(-c2ccccc2)c1 | 40.8 | 5.34 | 7.77 |  |  | inactive
Cc1cc(NCc2cccc(CN3C[C@H](O)[C@@H](O)[C@H](O)[C@H]3CO)c2)cc(-c2ncccn2)c1 | 52.9 | 4.18 | 7.36 |  |  | inactive
COCCCCCCCCCN1C[C@H](O)[C@@H](O)[C@H](O)[C@H]1CO.Cl | 100 |  |  | 5.48 | > 100000 | 
O=[N+]([O-])c1cc(N2C3CCC2COC3)ccc1NCCCCCCN1C[C@H](O)[C@@H](O)[C@H](O)[C@H]1CO | 98.9 | 7.52 | 7.28 | 5.79 | > 100000 | 

SMILES | Activity [1] [%] | pIC50 [2] | pIC50 [3] | pEC50 (SARS-CoV-2 [4]) | CC50 [5] [nM] | Activity (SARS-CoV-2 [6])
CS(=O)(=O)c1cc(Br)cc(NCc2cccc(CN3C[C@H](O)[C@@H](O)[C@H](O)[C@H]3CO)c2)c1 | 100 | 5.10 | 7.72 |  | > 100000 | 
COCCCCCCCCCN1C[C@H](O)[C@@H](O)[C@H](O)[C@H]1CO |  | 7.17 | 6.27 |  |  | 
O=[N+]([O-])c1cc(-n2cccn2)ccc1NCCCCCCN[C@H]1C[C@](O)(CO)[C@@H](O)[C@H](O)[C@H]1O | 85.6 |  |  |  | > 100000 | 
[N-]=[N+]=Nc1ccc(NCCc2cncc(CCN3C[C@H](O)[C@@H](O)[C@H](O)[C@H]3CO)n2)c([N+](=O)[O-])c1 | 38.8 | 8.52 | 7.03 |  |  | inactive
Cc1cc(NCc2cccc(CN3C[C@H](O)[C@@H](O)[C@H](O)[C@H]3CO)n2)cc(-c2ccc[nH]2)c1 | 54.1 | < 4.00 | 6.02 |  |  | inactive
OC[C@@H]1[C@@H](O)[C@H](O)[C@@H](O)CN1Cc1ccc(CNc2ccc(N3CCOCC3)cc2)cc1 | 97.6 | 5.80 | 6.91 |  | > 100000 | 
O=[N+]([O-])c1cc(-c2ccccc2)ccc1NCCCCCCN1C[C@H](O)[C@@H](O)[C@H](O)[C@H]1CO | 100 | > 9.00 | 7.24 | 6.38 | > 100000 | 
O=[N+]([O-])c1cc(-c2noc(C3CCC3)n2)ccc1NCCCCCCN1C[C@H](O)[C@@H](O)[C@H](O)[C@H]1CO | 100 | > 9.00 | 7.96 | 6.14 | 40700 | 
OC[C@@H]1[C@@H](O)[C@H](O)[C@@H](O)CN1CCCCCCCCc1ccco1 | 95.7 | 7.46 | 6.86 | 5.47 | 35000 | 
O=[N+]([O-])c1cc(-c2ccnc(N3CCOCC3)n2)ccc1NCCCCCCN1C[C@H](O)[C@@H](O)[C@H](O)[C@H]1CO | 58.6 | > 9.00 | > 9.00 |  |  | inactive
COCCc1ccc(CCCCCN2C[C@H](O)[C@@H](O)[C@H](O)[C@H]2CO)cc1 |  | 7.12 | 5.93 |  |  | 
Cc1cc(NCc2ccc(CN3C[C@H](O)[C@@H](O)[C@H](O)[C@H]3CO)cc2)cc(-c2cccnn2)c1 | 73.7 | 6.75 | 7.14 |  |  | inactive
[N-]=[N+]=Nc1ccc(NCCOC(=O)NCCN[C@H]2C[C@](O)(CO)[C@@H](O)[C@H](O)[C@H]2O)c([N+](=O)[O-])c1 |  |  | 5.95 |  |  | 
O=[N+]([O-])c1cc(N2CCOCC2)ccc1NCc1cccc(CN2C[C@H](O)[C@@H](O)[C@H](O)[C@H]2CO)c1 | 36.5 | 4.89 | 7.00 |  |  | inactive
CCCCN[C@H]1C[C@](O)(CO)[C@@H](O)[C@H](O)[C@H]1O |  |  | 4.53 |  |  | 
O=[N+]([O-])c1cc(N2[C@@H]3CC[C@H]2COC3)ccc1NCc1ccc(CN2C[C@H](O)[C@@H](O)[C@H](O)[C@H]2CO)cc1 | 75 | > 9.00 | > 9.00 |  | 39800 | 
